The values below are quoted from earlier work in patent US12295958B2, “Ready-to-use injectable formulations” (Zoetis Services LLC, priority 2019, dated 2025).

Counter-ions that a name gives are not always drawn. Like-named read-outs stand apart in the source and are kept apart here.

Data set [1] deals with S. intermedius. The note with it: dogs, single injection, S. intermedius infections.
For data set [2] the following is noted: clinical studies.
In data set [3] the test system is S. canis. The note with it: dogs, single injection, S. canis infections.
In data set [4] the test system is Pasteurella multocide. Conditions: cats, single injection, Pasteurella multocide infections.

For `CO/N=C(\C(=O)N[C@@H]1C(=O)N2C(C(=O)O)=C([C@@H]3CCCO3)CS[C@H]12)c1csc(N)n1` [Convenia, (6R,7R)-7-[[(2Z)-(2-amino-4-thiazolyl)(methoxyimino)acetyl]amino]-8-oxo-3-[(2S)-tetrahydro-2-furanyl]-5-thia-1-azabicyclo[4.2.0]oct-2-ene-2-carboxylic acid, monosodium salt], the “time therapeutic drug concentrations are maintained” value in data set [1] was “approximately 7 days”; in data set [3], “about 14 days”. The “clinical equivalence of a single injection” value in data set [2] is “clinically equivalent to a 14-day oral antibiotic regimen”. Also, the “time therapeutic dose concentrations are provided” value in data set [4] is recorded as “approximately 7 days”.

For `CCN(CC)CCOC(=O)[C@@H]1N2C(=O)[C@@H](NC(=O)Cc3ccccc3)[C@H]2SC1(C)C` [penethamate], the caking after transport entry (0.15% Tween and ethyl oleate, glass bottles, transported by road (about 2 hours) and air (about 1 hour)) is reported as ““rock solid” cake”. For the same molecule, the caking entry by setting is: (PVP K30 in addition with 0.5% Tween 80) “did not solve the caking problem”; (addition of 0.5% Tween) “hard cake”; (addition of 0.5% polyethylene glycol-12-oleate) “prevented caking”. Moreover, the resuspendability result (ethyl oleate suspension without Tween 80) was “required vigorous shaking and vortexing to disperse the cake”; the resuspendability result (ethyl oleate, 0.15% Tween 80 as flocculating agent) is on record as “good resuspendability”. Besides, under “increasing concentrations of phospholipids (Lipoid S100), suspensions containing PEG-12-oleate”, the dispersability of sediment entry is “less dispersable sediments”. Besides, the caking on vibration result (long chain fatty acid mixture with addition of phospholipid) is given as “caking on vibration”. In addition, the redispersion after vibration entry reads like this: (suspension in mixture of long chain saturated and unsaturated fatty acids) “dispersed readily”; (suspensions in Miglyol 840 and Miglyol 812) “difficult to redisperse after vibration”.
